Source: patent publication US7026315B1, “Fungicide mixtures which are based on derivatives of morpholine or piperidine and derivatives oxime ether” (BASF Aktiengesellschaft, priority 1998, dated 2006)

System: mildew of wheat (Erysiphe graminis forma specialis tritici)
Experiment: Activity against mildew of wheat (protective spray on potted wheat seedlings)
Type: in vivo
Settings: wheat seedlings cv. Kanzler, inoculated 24 h after spraying, evaluated after 7 days
Protocol: The active compounds, separately or together, are formulated as a 10% emulsion in a mixture of 63% by weight of cyclohexanone and 27% by weight of emulsifier, and diluted with water to the desired concentration.
Evaluation is carried out by determining the infected leaf areas in percent. These percentages are converted into efficacies. The efficacy (W) is calculated as follows using Abbot's formula: W=(1−α/β)·100 α corresponds to the fungal infection of the treated plants in % and β corresponds to the fungal infection of the untreated (control) plants in %
An efficacy of 0 means that the infection level of the treated plants corresponds to that of the untreated control plants; an efficacy of 100 means that the treated plants were not infected.
The expected efficacies of the mixtures of the active compounds were determined using Colby's formula [F. S. Colby, Weeds 15, 20–22 (1967)] and compared with the observed efficacies. • Colby's formula: E=x+y−x·y/100 E expected efficacy, expressed in % of the untreated control, when using the mixture of the active compounds A and B at the concentrations a and b x efficacy, expressed in % of the untreated control, when using active compound A at a concentration of a y efficacy, expressed in % of the untreated control, when using active compound B at a concentration of b.
Leaves of potted wheat seedlings cv. “Kanzler” were sprayed to runoff point with an aqueous preparation of active compound which was prepared from a stock solution comprising 10% of active compound, 63% of cyclohexanone and 27% of emulsifier and, 24 h after the spray coating had dried on, dusted with spores of mildew of wheat (Erysiphe graminis forma specialis tritici). The test plants were subsequently placed in climatized chambers at 20–24° C. and 60–90% relative atmospheric humidity for 7 days. The extent of the development of the infection on the leaves was then determined visually.
The visually determined values for the percentage of infected leaf areas were converted into efficacies as % of the untreated control. An efficacy of 0 means the same degree of infection as in the untreated control, an efficacy of 100 means 0% infection. The expected efficacies for active compound combinations were determined using Colby's formula (Colby, S. R. “Calculating synergistic and antagonistic responses of herbicide combinations”, Weeds, 15 (1967), 20–22) and compared with the observed efficacies.

Compound: CC(Cc1ccc(C(C)(C)C)cc1)CN1CCCCC1 (stereo not shown) [Compound I.b, Fenpropidin]
- Efficacy in % of the untreated control (0.25 ppm): 55%

Compound: CC(Cc1ccc(C(C)(C)C)cc1)CN1C[C@@H](C)O[C@@H](C)C1 (stereo partly shown) [Compound I.a, Fenpropimorph]
- Efficacy in % of the untreated control (0.25 ppm): 55%

Compound: CCCCCCCCCCCCCN1CC(C)OC(C)C1 (stereo not shown) [Compound I.c, Tridemorph]
- Efficacy in % of the untreated control (0.25 ppm): 0%
- Efficacy in % of the untreated control (1 ppm): 0%
